Assay [1] deals with MCF7. The assay can be described thus: Induction of cell cycle arrest in human MCF7 cells assessed as accumulation at subG1 phase at 1 to 10 uM after 72 hrs by propidium iodide staining based flow cytometry (reference value: 3.7%). The class given is functional. (In general: Flow cytometry measures light scatter and fluorescence of single cells or particles in a stream.)
Assay [2] relates to MCF7. In words: Induction of cell cycle arrest in human MCF7 cells assessed as accumulation at subG1 phase at 1 to 10 uM after 24 hrs by propidium iodide staining based flow cytometry. The class given is functional.
Assay [3] has as its target T1, Estrogen receptor beta (Homo sapiens, UniProt Q92731).
Description: (§1) Displacement of fluorescein-labeled estrogen from human recombinant ERbeta by fluorescence polarization based competitive binding affinity assay
Assay [4] deals with MCF7. In words: Induction of cell cycle arrest in human MCF7 cells assessed as accumulation at G2/M phase at 1 to 10 uM after 24 hrs by propidium iodide staining based flow cytometry. The class given is functional.
Assay [5] has as its system MCF7. The assay can be described thus: Reduction in Bcl-2 expression in human MCF7 cells at 10 uM after 72 hrs by SDS-PAGE and Western blot method. The class given is functional, cell-based. On the technique in general: Immunoblotting shows a protein as a band on a membrane.
In assay [6] the target is T1, Estrogen receptor beta. The assay can be described thus: Displacement of fluorescein-labeled estrogen from human recombinant ERbeta at 1 uM by fluorescence polarization based competitive binding affinity assay. (In fluorescence polarisation assays a small probe gives low polarisation when free and higher when bound to something large.)
In assay [7] the test system is MCF7. In words: cells. The settings on record: Homo sapiens, MCF7, 72 h.
For assay [8], the target named is T2, Estrogen receptor (Homo sapiens, UniProt P03372).
T2 sequence (P03372 whole entry): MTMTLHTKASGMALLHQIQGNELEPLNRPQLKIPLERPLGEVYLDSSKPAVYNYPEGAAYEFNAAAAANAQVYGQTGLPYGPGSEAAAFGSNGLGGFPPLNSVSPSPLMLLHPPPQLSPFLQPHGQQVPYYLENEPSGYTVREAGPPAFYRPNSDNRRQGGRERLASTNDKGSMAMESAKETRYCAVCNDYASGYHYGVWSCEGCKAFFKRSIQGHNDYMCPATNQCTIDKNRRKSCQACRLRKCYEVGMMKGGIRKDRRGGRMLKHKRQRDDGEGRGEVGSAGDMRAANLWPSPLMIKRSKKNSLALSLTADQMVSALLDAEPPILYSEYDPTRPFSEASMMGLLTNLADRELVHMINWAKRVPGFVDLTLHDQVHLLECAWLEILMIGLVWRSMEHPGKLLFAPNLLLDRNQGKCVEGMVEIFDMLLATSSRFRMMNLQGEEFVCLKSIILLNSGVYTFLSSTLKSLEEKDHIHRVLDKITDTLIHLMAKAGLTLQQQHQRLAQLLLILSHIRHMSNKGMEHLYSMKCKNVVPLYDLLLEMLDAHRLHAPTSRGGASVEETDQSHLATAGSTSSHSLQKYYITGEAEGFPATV
Description: (§2) Displacement of fluorescein-labeled estrogen from human recombinant ERalpha by fluorescence polarization based competitive binding affinity assay

Another assay has as its target Tubulin (Homo sapiens) (UniProt P68371+Q9H4B7+P0DPH7+P68366+Q13509+Q71U36+P04350+Q3ZCM7+P07437+P68363+Q9BQE3+Q6PEY2+Q13885+Q9BVA1+Q9BUF5). The assay can be described thus: Induction of tubulin depolymerization in human MCF7 cells at 1 uM after 4 hrs by sedimentation assay and Western blotting method. The class given is cell-based.
Assay [9] addresses T3, Estrogen receptor (Homo sapiens) (UniProt P03372).
T3 sequence (whole entry): T2 sequence (P03372 whole entry)
The assay can be described thus: Displacement of fluorescein-labeled estrogen from human recombinant ERalpha at 1 uM by fluorescence polarization based competitive binding affinity assay.

Assay [10] deals with MCF7. In words: Reduction in Bcl-2 expression in human MCF7 cells at 10 uM after 48 hrs by SDS-PAGE and Western blot method. Type of assay: functional, cell-based.
Assay [11] deals with MCF7. In words: Reduction in Mcl-1 expression in human MCF7 cells at 10 uM after 72 hrs by SDS-PAGE and Western blot method. Type of assay: functional, cell-based.
For assay [12], the system named is MCF7. In words: Induction of cell cycle arrest in human MCF7 cells assessed as accumulation at subG1 phase at 1 to 10 uM after 48 hrs by propidium iodide staining based flow cytometry (reference value: 1.9%). Type of assay: functional.
The target in assay [13] is T3, Estrogen receptor (Homo sapiens). In words: Agonist activity at human recombinant ERalpha by FRET assay.
The target of assay [14] is T2, Estrogen receptor. In words: Antagonist activity at human recombinant ERalpha by FRET assay.
Assay [15] concerns the target T2, Estrogen receptor. The source holds these as a separate data set.
Description: as §2
Assay [16] concerns MCF7. The assay can be described thus: Induction of cell cycle arrest in human MCF7 cells assessed as increase in accumulation at sub-G1 phase at 1 to 10 uM after 24 hrs by propidium iodide staining based flow cytometry. Type of assay: functional.
Assay [17] deals with T1, Estrogen receptor beta. This is another data set of the same source.
Description: as §1
Assay [18] deals with MCF7. The assay can be described thus: Induction of cell cycle arrest in human MCF7 cells assessed as accumulation at G2/M phase at >100 nM after 24 hrs by propidium iodide staining based flow cytometry. The class given is functional.
The test system of assay [19] is MCF7. The assay can be described thus: Induction of cell cycle arrest in human MCF7 cells assessed as increase in accumulation at sub-G1 phase at >10 nM after 24 hrs by propidium iodide staining based flow cytometry. The class given is functional.
In assay [20] the test system is MCF7. The assay can be described thus: Induction of cell cycle arrest in human MCF7 cells assessed as accumulation at G2/M phase at 10 uM after 24 hrs by propidium iodide staining based flow cytometry. Type of assay: functional.

Calls of active or inactive are those of the source. The calls are words filed in the database; no cut-off is given here. Some results are limits rather than exact numbers.

T1 sequence (Q92731 whole entry): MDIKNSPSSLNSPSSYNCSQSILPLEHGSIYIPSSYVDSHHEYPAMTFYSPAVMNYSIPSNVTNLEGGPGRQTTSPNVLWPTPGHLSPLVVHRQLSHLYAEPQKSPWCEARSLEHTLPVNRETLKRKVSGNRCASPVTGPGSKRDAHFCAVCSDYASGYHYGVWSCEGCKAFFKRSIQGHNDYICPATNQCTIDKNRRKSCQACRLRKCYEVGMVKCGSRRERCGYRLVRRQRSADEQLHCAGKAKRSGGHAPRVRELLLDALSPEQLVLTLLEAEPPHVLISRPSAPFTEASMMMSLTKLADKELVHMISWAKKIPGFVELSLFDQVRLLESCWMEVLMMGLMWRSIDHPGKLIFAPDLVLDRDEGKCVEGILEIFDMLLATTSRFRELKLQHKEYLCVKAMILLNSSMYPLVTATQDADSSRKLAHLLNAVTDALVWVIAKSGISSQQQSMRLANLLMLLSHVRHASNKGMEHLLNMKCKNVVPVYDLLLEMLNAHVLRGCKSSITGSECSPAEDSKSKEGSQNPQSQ

In general, IC50 refers to the midpoint of a concentration-inhibition curve. Usually inhibition stands for the change of the read-out against control, counted positive when it falls. `COc1ccc([C@H]2[C@H](C(O)c3ccc(O)cc3)C(=O)N2c2cc(OC)c(OC)c(OC)c2)cc1` (stereo partly specified): the Activity in the assay with MCF7 [1] turned out to be 17%; with MCF7 [12] it was 9.3%. Moreover, the result in the assay with MCF7 [2] was inactive. Also, the IC50 against Estrogen receptor beta [3] worked out at 15 nM; in the assay on MCF7 [7], 210 nM; against Estrogen receptor [8] it was 8 nM. The result in the assay on MCF7 [4], in the assay on MCF7 [5], at Tubulin (Homo sapiens), in the assay on MCF7 [10] and in the assay with MCF7 [11] was Active. Also, the inhibition came to 94% at Estrogen receptor beta [6] and 93% in [9].
With `O=C1[C@@H](C(O)c2ccc(O)cc2)[C@H](c2ccc(O)cc2)N1c1ccc(O)cc1` (stereo partly specified), the inhibition at Estrogen receptor beta [6] came to 43%; in assay [9], 40%. This compound showed an IC50 in the assay with MCF7 [7] of 49000 nM.
In the case of `O=C1[C@@H](c2ccc3ccccc3c2)[C@H](c2ccc(O)cc2)N1c1ccc(O)cc1` (relative stereo), the IC50 on Estrogen receptor beta [3] was 1100 nM; in the assay with MCF7 [7], more than 50000 nM; against Estrogen receptor [8], 150 nM.
In the case of `COc1cc([C@H]2[C@H](c3ccc(O)cc3)C(=O)N2c2ccc(O)cc2)cc(OC)c1OC` (relative stereo), the IC50 is 144000 nM on Estrogen receptor beta [3], more than 50000 nM with MCF7 [7] and 18000 nM on Estrogen receptor [8].
Regarding `O=C1C[C@H](c2ccc(O)cc2)N1c1ccc(O)cc1`, the IC50 was 56000 nM at Estrogen receptor beta [3], more than 50000 nM in the assay with MCF7 [7] and 13000 nM against Estrogen receptor [8].
On to `COc1ccc([C@@H]2[C@@H](c3ccc(C(O)c4ccc(OCCN5CCCC5)cc4)cc3)C(=O)N2c2ccc(OC)cc2)cc1` (stereo partly specified), for which the IC50 in the assay with MCF7 [7] is 4630 nM.
Turning to `O=C1N(c2ccc(O)cc2)[C@@H](c2ccc(O)cc2)C1(c1ccccc1)c1ccccc1`, the concentration for half-maximal inhibition (IC50) against Estrogen receptor beta [3] is 19 nM; in the assay with MCF7 [7], more than 50000 nM; on Estrogen receptor [8] it was 40 nM.
As for `COC(=O)Nc1nc2cc(C(=O)c3cccs3)ccc2[nH]1`, the result at Tubulin (Homo sapiens) was Active.
For the compound `COc1ccc([C@H]2[C@H](C(O)c3ccc(O)cc3)C(=O)N2c2ccc(OC)cc2)cc1` (stereo partly specified), the inhibition on Estrogen receptor beta [6] was found to be 75%; in [9], 37%. The same compound yielded an IC50 with MCF7 [7] of 32000 nM.
For `O=C1[C@@H](c2ccc(O)cc2)[C@H](c2ccc(O)cc2)N1c1ccc(O)cc1` (relative stereo), in assay [13], the result was inactive. Also, the IC50 on Estrogen receptor beta [3] was 4800 nM; in the assay with MCF7 [7], more than 50000 nM; against Estrogen receptor [8], 1100 nM; at Estrogen receptor [14], 1400 nM.
For `COc1cc([C@@H]2C(=O)N(c3ccc(O)cc3)[C@H]2c2ccc(O)cc2)cc(OC)c1OC` (relative stereo), the IC50 against Estrogen receptor beta [3] is 23000 nM; in the assay on MCF7 [7], more than 50000 nM; against Estrogen receptor [8], 1470 nM.
For the compound `O=C1[C@@H](Oc2ccccc2)[C@H](c2ccc(O)cc2)N1c1ccc(O)cc1` (relative stereo), the IC50 at Estrogen receptor beta [3] was 1200 nM; with MCF7 [7], more than 50000 nM; on Estrogen receptor [8], 140 nM.
In the case of `COc1ccc([C@H]2CC(=O)N2c2cc(OC)c(OC)c(OC)c2)cc1`, the half-maximal inhibitory concentration (IC50) entry against Estrogen receptor [15] and against Estrogen receptor beta [17] was “Not Active” in each case. The result in the assay on MCF7 [16] and in the assay with MCF7 [18] was Active.
Turning to `COc1ccc([C@H]2[C@H](C(O)c3ccc(OCCN4CCCC4)cc3)C(=O)N2c2cc(OC)c(OC)c(OC)c2)cc1` (stereo partly specified), the IC50 entry is “Not Active” at Estrogen receptor [15], 3800 nM with MCF7 [7] and “Not Active” on Estrogen receptor beta [17]. The outcome in the assay with MCF7 [19] and with MCF7 [20] was Active.
In the case of `O=C1[C@@H](c2ccccc2)[C@H](c2ccc(O)cc2)N1c1ccc(O)cc1` (relative stereo), the IC50 on Estrogen receptor beta [3] is 980 nM; in the assay on MCF7 [7], more than 50000 nM; against Estrogen receptor [8] it was 230 nM.

The values are drawn from ChEMBL document CHEMBL3352633, “β-Lactam estrogen receptor antagonists and a dual-targeting estrogen receptor/tubulin ligand” (J Med Chem, 2014).
